From patent US20080139842A1, “Medicament for preventive and/or therapeutic treatment of diseases with secretory disorder” (R&R INC., priority 2006, published 2008)

Experiments:
Type in all cases: in vivo, female NOD/Shi Jic mice
[1] = test system: NOD mice (spontaneous type I diabetes model); test: Evaluation in NOD mice: weekly urinalysis for urinary sugar (diabetes onset); conditions: 1 mg/kg mixed in feed over 19 weeks from 6 weeks of age, N = 6, positive = urinary glucose 2,000 mg/dl or higher, control group 2/6
Source text: (§1) NOD mice have been used as spontaneous type I diabetes and Sjoegren's syndrome model animals. Lymphocyte infiltration lesions similar to those of type I diabetes are developed in the pancreatic islets of Langerhans, and lymphocyte infiltration lesions similar to those of Sjoegren's syndrome are developed in the salivary glands (Eur. J. Immunol., 28, pp. 3336-3345, 1998). To female NOD/Shi Jic mice at 6 weeks of age, tamibarotene (Am80, 4-[(5,6,7,8-tetrahydro-5,5,8,8-tetramethyl-2-naphthalenyl)carbamoyl]benzoic acid) was administered over 19 weeks by mixing it in feed. During the test period, urinalysis was conducted once every week to measure urinary sugar. Test paper for urinalyses, Pre Test 3aII (Wako Pure Chemical Industries), was immersed in mouse fresh urine, and when a determined glucose value was 2,000 mg/dl or higher, the mouse was judged to be with diabetes. When the mice gave a sign of physical agony, they were euthanized. After the end of the administration period, pancreases and submaxillary glands were extracted from the euthanized mice, and fixed by immersion in a neutrally buffered 10% formalin fixation solution. From the fixed pancreases and submaxillary glands, hematoxin-eosin stained histopathological specimens were prepared, and the influence of tamibarotene on the pancreases and salivary glands was histopathologically evaluated. […]

[2] = test system: pancreatic islets of Langerhans of NOD mice; test: Evaluation in NOD mice: histopathological evaluation of pancreases (islets of Langerhans); conditions: 1 mg/kg mixed in feed over 19 weeks, N = 6; for Pancreatic La islet lymphocyte infiltration score (average): score 0 no lesion, 1 slight, 2 moderate, 3 severe, control group 2.7
Source text: NOD mice have been used as spontaneous type I diabetes and Sjoegren's syndrome model animals. Lymphocyte infiltration lesions similar to those of type I diabetes are developed in the pancreatic islets of Langerhans, and lymphocyte infiltration lesions similar to those of Sjoegren's syndrome are developed in the salivary glands (Eur. J. Immunol., 28, pp. 3336-3345, 1998). To female NOD/Shi Jic mice at 6 weeks of age, tamibarotene (Am80, 4-[(5,6,7,8-tetrahydro-5,5,8,8-tetramethyl-2-naphthalenyl)carbamoyl]benzoic acid) was administered over 19 weeks by mixing it in feed. During the test period, urinalysis was conducted once every week to measure urinary sugar. Test paper for urinalyses, Pre Test 3aII (Wako Pure Chemical Industries), was immersed in mouse fresh urine, and when a determined glucose value was 2,000 mg/dl or higher, the mouse was judged to be with diabetes. When the mice gave a sign of physical agony, they were euthanized. After the end of the administration period, pancreases and submaxillary glands were extracted from the euthanized mice, and fixed by immersion in a neutrally buffered 10% formalin fixation solution. From the fixed pancreases and submaxillary glands, hematoxin-eosin stained histopathological specimens were prepared, and the influence of tamibarotene on the pancreases and salivary glands was histopathologically evaluated. For each of the tamibarotene-administered group and the control group, 6 mice were used.
The results are indicated by numbers of urinary sugar positive mice, scores for destruction of the pancreatic islets of Langerhans (henceforth occasionally abbreviated as “Pancreatic La islet”) associated with lymphocyte infiltration (Pancreatic La islet lymphocyte infiltration score), scores for decrease in number of the pancreatic islets of Langerhans (Pancreatic La islet number score), and submaxillary gland lymphocyte infiltration scores. The scores were determined according to the following criteria.
0: No lesion was observed

[3] = test system: submaxillary glands of NOD mice; test: Evaluation in NOD mice: histopathological evaluation of submaxillary glands (Sjoegren's syndrome model); conditions: 1 mg/kg mixed in feed over 19 weeks, N = 6, score 0 no lesion to 3 severe, control group 1.7
Source text: as §1

SMILES: CC1(C)CCC(C)(C)c2cc(NC(=O)c3ccc(C(=O)O)cc3)ccc21 [Tamibarotene, 4-[(5,6,7,8-tetrahydro-5,5,8,8-tetramethyl-2-naphthalenyl)carbamoyl]benzoic acid]
- Urinary sugar positive mice [1]: 0/6
- Urinary sugar positive mice ([1]; listed as tamibarotene): no urinary sugar positive mouse was observed
- Pancreatic La islet lymphocyte infiltration score (average) [2]: 1.7
- Pancreatic La islet lymphocyte infiltration score (average) ([2]; listed as tamibarotene): apparently reduced
- Pancreatic La islet number score (average) ([2]; score for decrease in number of islets, score 0 no lesion to 3 severe, control group 1): 0
- Submaxillary gland lymphocyte infiltration score (average) [3]: 0.8
- Submaxillary gland lymphocyte infiltration score (average) ([3]; listed as tamibarotene): reduced
